Molecules are shown by their SMILES. pEC50: −log10 of the molar value.

The test system of this test is THP-1 viability, CellTiter-Glo luminescence, 72 h. Description: PubChem AID 2252.
The pEC50 is the EC50 on a negative log10 scale, so that one unit is a factor of ten. As to `Cc1ccc(C(=O)N2C(=S)C(c3ccc(F)cc3)=NC23CCN(C)CC3)cc1`, the negative logarithm of the EC50 (pEC50) is 4.78.

Consider `CNc1ccc(SC#N)cc1`, for which the pEC50 was 4.47.

With `CCOc1cc(Br)cc(/C=N/NC(=O)c2cccnc2)c1O`, the pEC50 is 5.12.

As to `CCN(CC)C(=S)SSC(=S)N(CC)CC`, the pEC50 was 4.66.

For `COc1ccccc1Nc1c2ccccc2nc2ccccc12`, the pEC50 was 5.08.

Turning to `CCCCCCCCCCCCOC(=O)C[N+](C)(C)C`, the pEC50 was 4.63.

In the case of `C#CCOCCOCCOCCNc1nc(N2CCN(C(=O)CCCCCCCCCCNC(=O)Cn3cc(C[C@@H](C)O)nn3)CC2)nc(N2CCN(C(=O)CCCCCCCCCCNC(=O)[C@H](CCCN=C(N)N)n3cc(C[C@@H](C)CC)nn3)CC2)n1`, the pEC50 was 4.84.

Regarding `CN(O)/C=c1/ccc2c(n1)C(=O)C=CC=2`, the negative-log EC50 (pEC50) was 4.59.

In the case of `CC(=O)c1cc(O)c2ccccc2c1O`, the pEC50 is 4.38.

In the case of `O=c1c2ccccc2nc(-c2cccc(Cl)c2)n1O`, the pEC50 is 4.74.

For the compound `NC(N)=N/N=C/c1ccc(OCc2ccccc2Cl)cc1`, the pEC50 was 5.50.

Turning to `C#CCOCCOCCOCCNc1nc(N2CCN(C(=O)CCCCCCCCCCNC(=O)Cn3cc(C[C@@H](C)O)nn3)CC2)nc(N2CCN(C(=O)CCCCCCCCCCNC(=O)[C@@H]([C@H](C)CC)n3cc(CCCCCN)nn3)CC2)n1`, the negative-log EC50 (pEC50) is 5.00.

For the compound `COc1cc(/C=C/[N+](=O)[O-])ccc1O`, the pEC50 was 4.92.

In the case of `CN(C)CCCN1c2ccccc2CCc2ccc(Cl)cc21`, the negative-log EC50 (pEC50) was 4.74.

Regarding `S=C(NCc1ccc(Cl)cc1)Nc1ccncc1`, the pEC50 is 4.40.

For the compound `Oc1[nH]c2ccccc2c1N=NC(=S)N1CCOCC1`, the pEC50 was 5.61.

Turning to `C#CCOCCOCCOCCNc1nc(N2CCN(C(=O)CCCCCCCCCCNC(=O)[C@H](CCCCN)n3cc(C[C@@H](C)CC)nn3)CC2)nc(N2CCN(C(=O)CCCCCCCCCCNC(=O)[C@@H]([C@H](C)O)n3cc(C)nn3)CC2)n1`, the negative-log EC50 (pEC50) was 5.21.

For `O=C(C[n+]1cccc(CNC(=O)c2ccc(OC(F)F)cc2)c1)Nc1ccc(SC(F)F)cc1`, the pEC50 was 5.14.

As to `Clc1ccc(CONc2ncnc3nonc23)c(Cl)c1`, the pEC50 is 4.32.

As to `CC(=O)Nc1nc(C)c(-c2csc(Nc3ccc(O)cc3)n2)s1`, the negative-log EC50 (pEC50) was 5.40.

Regarding `Cc1ccc(C(C)C)c(OCCNC(=O)c2ccccc2O)c1`, the negative logarithm of the EC50 (pEC50) is 4.49.

On to `Cc1cc(C)nc(/N=C(\N)Nc2ccc(SC(F)F)cc2)n1`, for which the pEC50 was 4.89.

Regarding `CCn1cc(C(=O)O)c(=O)c2cc(F)c(N3CCN(S(=O)(=O)c4ccc(NC(C)=O)cc4)CC3)cc21`, the pEC50 was 4.33.

On to `CC[n+]1c(/C=C/N(C)c2ccccc2)n(-c2ccccc2)c2ccc(-c3nc4ccccc4s3)cc21`, for which the negative logarithm of the EC50 (pEC50) was 6.36.

As for `CCc1ccc(CNCc2ccc(OCC(O)CN(C)Cc3ccccc3)cc2)nc1` (configuration not stated), the pEC50 is 4.64.

For the compound `O=C(Nc1nc(-c2ccccn2)cs1)c1ccc(Cl)s1`, the pEC50 is 6.08.

In the case of `Cc1nnc(N/N=C/c2ccccn2)[nH]c1=O`, the pEC50 was 5.79.

`Cc1cc(C)c2nc(C)cc(N/N=C/c3ccc(O)cc3)c2c1`: the pEC50 is 5.72.

`OCCN1CCN(CCCN2c3ccccc3Sc3ccc(C(F)(F)F)cc32)CC1`: the pEC50 is 4.90.

For the compound `Fc1ccc(Nc2nc(NCc3ccco3)c3ccccc3n2)cc1`, the pEC50 is 5.23.

Consider `Cc1ccc(OCC(O)Cn2c(=N)n(CCN3CCCCC3)c3ccccc32)cc1` (configuration not stated), for which the pEC50 is 5.27.

`CCCCCCCSc1cc(OC)c(CCN(C)C)cc1OC`: the pEC50 is 5.02.

Turning to `CCn1cc(C(=O)O)c(=O)c2cc(F)c(N3CCN(C(=S)NC(=O)c4cccc(C)c4)CC3)cc21`, the pEC50 is above 7.00.

As for `O=C(CCl)Nc1nccs1`, the pEC50 was 4.84.

Take `NC[C@@H]1O[C@H](C23CC4CC(CC(C4)C2)C3)Cc2c1ccc(O)c2O`: the pEC50 is 5.44.

For the compound `Fc1ccc(NC(=S)Nc2cc(-c3ccccc3)[nH]n2)cc1Cl`, the negative-log EC50 (pEC50) is 4.38.

Regarding `O=c1c2ccccc2nc(COc2ccccc2)n1/N=C/c1ccc(O)cc1O`, the pEC50 was 5.84.

On to `CNC[C@H](Cc1ccccc1)NC[C@@H](Cc1cccc2ccccc12)NCCc1ccc(C)cc1`, for which the pEC50 is 5.40.

As to `CCc1nn(CCCN2CCN(c3cccc(Cl)c3)CC2)c(=O)n1CCOc1ccccc1`, the pEC50 was 4.37.

With `CC(Nc1nc(N2CCCCC2)nc2ccccc12)c1ccccc1` (configuration not stated), the pEC50 was 5.15.

Regarding `O=C(Cc1ccc([N+](=O)[O-])cc1)N/N=C/c1ccc([N+](=O)[O-])o1`, the pEC50 was 4.92.

In the case of `CC1=NN(c2nc3ccccc3[nH]2)C(=O)C1Cc1ccccc1` (configuration not stated), the pEC50 is 5.73.

For `Cc1cccc(OCC(O)Cn2c(=N)n(CCN3CCCCC3)c3ccccc32)c1` (configuration not stated), the pEC50 is 4.79.

Turning to `O=C(Oc1c(Cl)cc(Cl)c2cccnc12)c1ccco1`, the pEC50 is 4.93.

For the compound `CC(C)(C)c1ccc(OCCCNC2CCCC2)cc1`, the pEC50 is 4.70.

On to `CCCCCc1ccc(OCCCC[n+]2ccccc2)c(CCCCC)c1`, for which the pEC50 was 5.83.

Regarding `OCCN1CCN(C2CCC(c3ccc(F)cc3)c3ccc(F)cc32)CC1` (configuration not stated), the pEC50 was 5.02.

For `O=C(Nc1nnc(-c2cccs2)o1)c1cccc(C(F)(F)F)c1`, the pEC50 was 4.85.

As for `C#CCOCCOCCOCCNc1nc(N2CCN(C(=O)CCCCCCCCCCNC(=O)[C@H](CO)n3cc(CCCCCN)nn3)CC2)nc(N2CCN(C(=O)CCCCCCCCCCNC(=O)[C@H](CCCN=C(N)N)n3cc(C[C@@H](C)CC)nn3)CC2)n1`, the pEC50 is 5.20.

As for `CN1CCN(c2nc3cc(C(F)(F)F)ccc3n3cccc23)CC1`, the negative-log EC50 (pEC50) is 4.37.

For `O=C(C[n+]1cn(C(F)F)c2ccccc21)c1ccc(Br)cc1`, the pEC50 was 4.45.

`CCn1cc(C(=O)NCc2ccc3c(c2)OCO3)c(=O)c2cc(F)c(N3CCN(C(=O)c4ccco4)CC3)cc21`: the pEC50 was 4.70.

In the case of `O=C(c1ccccc1)c1c2c(cc3sc4ccccc4[n+]13)-c1cccc3cccc-2c13`, the pEC50 was 5.87.

With `O=C(NCCCNc1ccnc2cc(Cl)ccc12)c1ccccc1F`, the pEC50 is 4.67.

With `Nc1nonc1-n1nnc(C(=O)N/N=C/c2cc(Br)ccc2O)c1CSC1=NCCS1`, the pEC50 was 5.89.

Turning to `CN1CCN(c2ccccc2NC(=O)c2sc3ccccc3c2Cl)CC1`, the pEC50 was 4.60.

Turning to `CCOC(=O)N/N=C(/C)c1ccc([N+](=O)[O-])o1`, the pEC50 was 4.47.

Consider `Cn1c(N/N=C/c2c[nH]c3ccccc23)nc2ccccc21`, for which the negative logarithm of the EC50 (pEC50) was 5.09.

`O=C(NCc1ccco1)C1CCN(C(=O)c2cc3sccc3n2Cc2ccc(Cl)cc2)CC1`: the pEC50 is 4.56.

On to `COc1ccc(CNC(=O)CCC(=O)N2C[C@H]3C[C@H](C2)c2cccc(=O)n2C3)cc1`, for which the pEC50 is above 7.00.

On to `OC(CNCc1ccco1)Cn1c2ccc(Br)cc2c2cc(Br)ccc21` (configuration not stated), for which the pEC50 was 5.01.

Turning to `Clc1ccc2c(c1)c1cc(Cl)ccc1n2CN1CCOCC1`, the pEC50 is 4.56.

With `Cc1cc(/C=C\c2ccc3cc(N(C)C)ccc3[n+]2C)c(C)n1-c1ccccc1`, the pEC50 is 5.31.

Regarding `Cc1ccc(C(=O)NCC(=O)NCCc2ccc(S(N)(=O)=O)cc2)s1`, the pEC50 was above 7.00.

Regarding `CCN1CCN(Cc2ccc(NC(=O)c3ccc(C)c(NC(=O)c4c[nH]c5cc(C(F)(F)F)ccc5c4=O)c3)cc2C(F)(F)F)CC1`, the pEC50 is 5.69.

Consider `O=C(N/N=C/c1sc2ccccc2c1O)c1cccc2ccccc12`, for which the pEC50 was 5.59.

For the compound `O=C(C[n+]1cc(Br)cc2ccccc21)c1ccc(F)cc1`, the pEC50 was above 7.00.
